What was measured:
[1] = tested on: ALOMY; assay: Post-emergence herbicidal action against ALOMY; type: in vivo, Alopecurus myosuroides; settings: 80 g/ha, visual assessment after about 3 weeks
Procedure: (§1) Seeds of monocotyledonous and dicotyledonous weed and crop plants are laid out in sandy loam soil in wood-fiber pots, covered with soil and cultivated in a greenhouse under good growth conditions. 2 to 3 weeks after sowing, the test plants are treated at the one-leaf stage. The compounds of the invention, formulated in the form of wettable powders (WP) or as emulsion concentrates (EC), are then sprayed onto the green parts of the plants as aqueous suspension or emulsion at a water application rate equating to 600 to 800 l/ha with addition of 0.2% wetting agent. After the test plants have been left to stand in the greenhouse under optimal growth conditions for about 3 weeks, the action of the preparations is assessed visually in comparison to untreated controls (herbicidal action in percent (%): 100% activity=the plants have died, 0% activity=like control plants).

[2] = tested on: LOLRI; assay: Pre-emergence herbicidal action against LOLRI (Table 8, titled post-emergence at 320 g/ha); type: in vivo, Lolium rigidum; settings: table stands in the pre-emergence section
Source text: (§2) Seeds of monocotyledonous and dicotyledonous weed plants and crop plants are laid out in sandy loam soil in wood-fiber pots and covered with soil. The compounds of the invention, formulated in the form of wettable powders (WP) or as emulsion concentrates (EC), are then applied to the surface of the covering soil as aqueous suspension or emulsion at a water application rate equating to 600 to 800 L/ha with addition of 0.2% wetting agent.
(§3) After the treatment, the pots are placed in a greenhouse and kept under good growth conditions for the trial plants. The damage to the test plants is scored visually after a test period of 3 weeks by comparison with untreated controls (herbicidal activity in percent (%): 100% activity=the plants have died, 0% activity=like control plants).

[3] = tested on: LOLRI; assay: Post-emergence herbicidal action against LOLRI; type: in vivo, Lolium rigidum; settings: 80 g/ha, visual assessment about 3 weeks after treatment vs untreated controls
Procedure: as §1

[4] = tested on: ECHCG; assay: Post-emergence herbicidal action against ECHCG; type: in vivo, Echinochloa crus-galli; settings: 80 g/ha, visual assessment about 3 weeks after treatment vs untreated controls
Procedure: as §1

[5] = tested on: AVEFA; assay: Post-emergence herbicidal action against AVEFA; type: in vivo, Avena fatua; settings: 80 g/ha, visual assessment after about 3 weeks
Procedure: as §1

[6] = tested on: DIGSA; assay: Post-emergence herbicidal action against DIGSA; type: in vivo, Digitaria sanguinalis; settings: 80 g/ha, visual assessment about 3 weeks after treatment vs untreated controls
Procedure: as §1

[7] = tested on: SETVI; assay: Pre-emergence herbicidal action against SETVI; type: in vivo, Setaria viridis; settings: 320 g/ha, scored visually after 3 weeks vs untreated controls
Source text: as §2, §3

[8] = tested on: DIGSA; assay: Pre-emergence herbicidal action against DIGSA; type: in vivo, Digitaria sanguinalis; settings: 320 g/ha, scored visually after 3 weeks vs untreated controls
Source text: as §2, §3

[9] = tested on: SETVI; assay: Post-emergence herbicidal action against SETVI; type: in vivo, Setaria viridis; settings: 80 g/ha, visual assessment about 3 weeks after treatment vs untreated controls
Procedure: as §1

[10] = tested on: AVEFA; assay: Pre-emergence herbicidal action against AVEFA; type: in vivo, Avena fatua; settings: 320 g/ha, scored visually after 3 weeks vs untreated controls
Source text: as §2, §3

[11] = tested on: ECHCG; assay: Pre-emergence herbicidal action against ECHCG; type: in vivo, Echinochloa crus-galli; settings: 320 g/ha, scored visually after 3 weeks vs untreated controls
Source text: as §2, §3

[12] = tested on: ALOMY; assay: Pre-emergence herbicidal action against ALOMY; type: in vivo, Alopecurus myosuroides; settings: 320 g/ha, scored visually after 3 weeks vs untreated controls
Source text: as §2, §3

Row | Compound | Post-emergence action against ALOMY in % [1] | Pre-emergence herbicidal action against LOLRI in % [2] | Post-emergence action against LOLRI in % [3] | Post-emergence action against ECHCG in % [4] | Post-emergence action against AVEFA in % [5] | Post-emergence action against DIGSA in % [6] | Pre-emergence action against SETVI in % [7] | Pre-emergence action against DIGSA in % [8] | Post-emergence action against SETVI in % [9] | Pre-emergence action against AVEFA in % [10] | Pre-emergence action against ECHCG in % [11] | Pre-emergence action against ALOMY in % [12]
1 | CC#Cc1cc(C)c(C2=C(O)C3(CCC(COC)C3)NC2=O)c(F)c1 (centres unmarked) [Example I-34] | 100% | 100% | 100% | 100% | 90% | 100% | 100% | 100% | 100% | – | – | –
2 | CC#Cc1cc(Br)c(C2=C(O)C3(CCC(COCC)C3)NC2=O)c(OCC)c1 (centres unmarked) [Example I-64] | 90% | 100% | 90% | 100% | 80% | 80% | 100% | 100% | 100% | 80% | 100% | 100%
3 | C#CCOCC1CCC2(C1)NC(=O)C(c1c(F)cc(C#CC)cc1OC)=C2O (centres unmarked) [Example I-74] | 90% | 100% | 90% | 100% | 80% | 90% | 100% | 100% | 100% | 90% | 100% | 100%
4 | CC#Cc1cc(Br)c(C2=C(O)C3(CCC(COCC)C3)NC2=O)c(OCC)c1 (centres unmarked) [Example I-63] | 100% | 100% | 90% | 100% | 80% | 90% | 100% | 100% | 100% | 100% | 100% | 100%
5 | CC#Cc1cc(Br)c(C2=C(O)C3(CCC(COC)C3)NC2=O)c(OCC)c1 (centres unmarked) [Example I-66] | 100% | 100% | 100% | 100% | 80% | 90% | 100% | 100% | 100% | 100% | 100% | 100%
6 | CC#Cc1cc(F)c(C2=C(O)C3(CCC(COCC)C3)NC2=O)c(OC)c1 (centres unmarked) [Example I-43] | 100% | 100% | 90% | 100% | 90% | – | 100% | 100% | 100% | 100% | 100% | 100%
7 | CC#Cc1cc(Br)c(C2=C(OC(=O)OCC)C3(CCC(COC)C3)NC2=O)c(OCC)c1 (centres unmarked) [Example P-90] | 100% | 100% | 100% | 100% | 80% | 90% | 100% | 100% | 100% | 100% | 100% | 100%
